Data reported in patent US10774064B2 (Cadent Therapeutics, Inc., priority 2016, dated 2020).
Structures can show the parent of a compound that is named as a salt.

Target: T1, small-conductance Ca2+-activated K+ channels (SK channels, subtype 2) (Homo sapiens, UniProt Q9H2S1)
T1 construct: expressed in transfected cells; host or cells: HEK293
Experiment: whole-cell patch-clamp of ionic current through SK2 channels in HEK293 cells (SC100)
Assay type: cell-based
Details: whole-cell patch-clamp, HEK293 cells expressing SK2 channels; concentration that increases the basal current by 100%
Summary of the method: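 Whole-cell patch-clamp recording of current in HEK293 cells expressing SK2 channels. SC100 is the compound concentration that increases basal current by 100%.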

Row | Structure (SMILES) | SC100 (μM)
1 | COc1cc(NC2CCCCC2)nc(-n2nc(C)cc2C)n1 [IN11055-044-P1] | + (+ means >1 uM)
2 | Cc1csc(-c2nc(NC3CCC(F)(F)CC3)cc(N(C)C)n2)n1 [IN11055-046-P1] | ++ (++ means 200 nM-1000 nM)
3 | CNc1cc(NC2CCC(F)(F)CC2)nc(-c2nc(C)cs2)n1 [IN11055-049-P1] | ++ (++ means 200 nM-1000 nM)
4 | COc1cc(NC2CCCC2)nc(-c2nc(C)cs2)n1 [IN11055-066-P1] | + (+ means >1 uM)
5 | Cc1csc(-c2nc(N)cc(NC3CCC(F)(F)CC3)n2)n1 [IN11055-068-P1, N4-(4,4-difluorocyclohexyl)-2-(4-methylthiazol-2-yl)pyrimidine-4,6-diamine] | + (+ means >1 uM)
6 | COc1cc(NC2CCC(C)(C)CC2)nc(-c2nc(C)cs2)n1 [IN11055-069-P1, N-(4,4-dimethylcyclohexyl)-6-methoxy-2-(4-methylthiazol-2-yl)pyrimidin-4-amine] | ++ (++ means 200 nM-1000 nM)
7 | COc1cc(NC2CCC(C)(C)CC2)nc(-n2ccc(C)n2)n1 [IN11055-078-P1, N-(4,4-dimethylcyclohexyl)-6-methoxy-2-(3-methyl-1H-pyrazol-1-yl)pyrimidin-4-amine] | + (+ means >1 uM)
8 | COc1cc(NC2CCC(F)CC2)nc(-n2nc(C)cc2C)n1 (stereo not drawn) [IN11055-079-P1] | + (+ means >1 uM)
9 | COc1cc(NC2CC3CCC2C3)nc(-c2nc(C)cs2)n1 (stereo not drawn) [IN11055-087-P1] | + (+ means >1 uM)
10 | Cc1csc(-c2nc(NC3CCC(F)(F)CC3)cc(OCc3cnco3)n2)n1 [IN11059-047-P1] | +++ (+++ means <200 nM)
11 | Cc1csc(-c2nc(NC3CCC(F)(F)CC3)cc(OCCNS(C)(=O)=O)n2)n1 [IN11059-052-P1] | ++ (++ means 200 nM-1000 nM)
12 | Cc1ccn(-c2nc(NC3CCC(F)(F)CC3)cc([S+](C)[O-])n2)n1 (stereo not drawn) [IN11059-069-P1] | ++ (++ means 200 nM-1000 nM)
13 | CSc1cc(NC2CCC(F)(F)CC2)nc(-n2ccc(C)n2)n1 [IN11059-070-P1] | ++ (++ means 200 nM-1000 nM)
14 | Cc1ccn(-c2nc(NC3CCC(F)(F)CC3)cc(S(C)(=O)=O)[n+]2[O-])n1 [IN11059-071-P1] | + (+ means >1 uM)
15 | CC(=O)N(C)Cc1cc(NC2CCC(F)(F)CC2)nc(-c2nc(C)cs2)n1 [IN11059-090-P1] | ++ (++ means 200 nM-1000 nM)
16 | Cc1csc(-c2nc(CN(C)C=O)cc(NC3CCC(F)(F)CC3)n2)n1 [IN11059-095-P1] | ++ (++ means 200 nM-1000 nM)
17 | CNCc1cc(NC2CCC(F)(F)CC2)nc(-c2nc(C)cs2)n1 [IN11059-096-P1, N-(4,4-difluorocyclohexyl)-6-((methylamino)methyl)-2-(4-methylthiazol-2-yl)pyrimidin-4-amine] | + (+ means >1 uM)
18 | CCOc1cc(NC2CCC(F)(F)CC2)nc(-n2ccc(C)n2)n1 [IN11063-005-P1] | + (+ means >1 uM)
19 | Cc1ccn(-c2cc(CN(C)C)cc(NC3CCC(F)(F)CC3)n2)n1 [IN11063-006-P1, N-(4,4-difluorocyclohexyl)-4-((dimethylamino)methyl)-6-(3-methyl-1H-pyrazol-1-yl)pyridin-2-amine] | ++ (++ means 200 nM-1000 nM)
20 | COC(=O)NC(C)(C)c1cc(NC2CCC(F)(F)CC2)nc(-n2ccc(C)n2)c1 [IN11063-030-P1, methyl (2-(2-((4,4-difluorocyclohexyl)amino)-6-(3-methyl-1H-pyrazol-1-yl)pyridin-4-yl)propan-2-yl)carbamate] | + (+ means >1 uM)
21 | Cc1cc(NC2CCC(F)(F)CC2)cc(-c2nc(C)cs2)c1 [IN11063-086-P2, N-(4,4-difluorocyclohexyl)-3-methyl-5-(4-methylthiazol-2-yl) aniline] | + (+ means >1 uM)
22 | Cc1csc(-c2cc(N)cc(NC3CCC(F)(F)CC3)n2)n1 [IN11063-087-P1, N2-(4,4-difluorocyclohexyl)-6-(4-methylthiazol-2-yl)pyridine-2,4-diamine] | ++ (++ means 200 nM-1000 nM)
23 | Cc1ccn(-c2nc(N3CCOCC3)cc3c2CCN3)n1 [IN11063-092-P1, 4-(4-(3-methyl-1H-pyrazol-1-yl)-2,3-dihydro-1H-pyrrolo[3,2-c]pyridin-6-yl)morpholine hydrochloride] | + (+ means >1 uM)
24 | CNc1cc(NC2CCC(F)(F)CC2)nc(-c2nc(C)cs2)c1 [IN11063-096-P1, N2-(4,4-difluorocyclohexyl)-N4-methyl-6-(4-methylthiazol-2-yl)pyridine-2,4-diamine] | ++ (++ means 200 nM-1000 nM)

Row | Structure (SMILES) | SC100 (μM)
25 | CC(=O)N1CCCC(OCc2cc(NC3CCC(F)(F)CC3)nc(-n3ccc(C)n3)c2)C1 (stereo not drawn) [IN11067-003-P1] | ++ (++ means 200 nM-1000 nM)
26 | COC(=O)N1CCCC(OCc2cc(NC3CCC(F)(F)CC3)nc(-n3ccc(C)n3)c2)C1 (stereo not drawn) [IN11067-004-P1] | ++ (++ means 200 nM-1000 nM)
27 | Cc1cc(C)n(-c2cc(OCc3ncco3)cc(NC3CCC(F)(F)CC3)n2)n1 [IN11067-023-P1, N-(4,4-difluorocyclohexyl)-6-(3,5-dimethyl-1H-pyrazol-1-yl)-4-(oxazol-2-ylmethoxy)pyridin-2-amine] | +++ (+++ means <200 nM)
28 | COc1cc(NC2CCCCC2)nc(-c2nc(C)cs2)n1 [IN11067-035-P1] | ++ (++ means 200 nM-1000 nM)
29 | CSc1cc(NC2CCC(F)(F)CC2)nc(-n2nc(C)cc2C)n1 [IN11067-060-P1, N-(4,4-difluorocyclohexyl)-2-(3,5-dimethyl-1H-pyrazol-1-yl)-6-(methylthio)pyrimidin-4-amine] | + (+ means >1 uM)
30 | Cc1cc(C)n(-c2nc(NC3CCC(F)(F)CC3)cc(S(C)(=O)=O)n2)n1 [IN11067-061-P1] | + (+ means >1 uM)
31 | Cc1cc(C)n(-c2nc(NC3CCC(F)(F)CC3)cc([S+](C)[O-])n2)n1 (stereo not drawn) [IN11067-062-P1] | + (+ means >1 uM)
32 | COc1cc(NC2CCC(F)CC2)nc(-c2nc(C)cs2)n1 (stereo not drawn) [IN11067-072-P1] | + (+ means >1 uM)
33 | Cc1csc(-c2nc(NC3CCC(F)(F)CC3)cc(OC3CCOCC3)n2)n1 [IN11079-007-P1] | + (+ means >1 uM)
34 | FC1(F)CCC(Nc2cc(N3CCOCC3)nc(-n3ccc(C(F)(F)F)n3)n2)CC1 [IN11079-009-P1, N-(4,4-difluorocyclohexyl)-6-morpholino-2-(3-(trifluoromethyl)-1H-pyrazol-1-yl)pyrimidin-4-amine] | ++ (++ means 200 nM-1000 nM)
35 | Cc1csc(-c2nc(NC3CCC(F)(F)CC3)cc(OC3CCOC3)n2)n1 (stereo not drawn) [IN11079-014-P1] | + (+ means >1 uM)
36 | Cc1csc(-c2nc(NC3CCC(F)(F)CC3)cc(OC3COC3)n2)n1 [IN11079-033-P1] | ++ (++ means 200 nM-1000 nM)
37 | CCOc1ccn(-c2nc(C)cc(NC3CCC(F)(F)CC3)n2)n1 [IN11079-040-P1, N-(4,4-difluorocyclohexyl)-2-(3-ethoxy-1H-pyrazol-1-yl)-6-methylpyrimidin-4-amine] | + (+ means >1 uM)
38 | Cc1csc(-c2cnc(NC3CCC(F)(F)CC3)c(C)n2)n1 [IN11079-047-P1, N-(4,4-difluorocyclohexyl)-3-methyl-5-(4-methylthiazol-2-yl) pyrazin-2-amine] | + (+ means >1 uM)
39 | Cc1cc(NC2CCC(F)(F)CC2)nc(-n2ccc(OCc3ccccc3)n2)n1 [IN11079-066-P1, 2-(3-(benzyloxy)-1H-pyrazol-1-yl)-N-(4,4-difluorocyclohexyl)-6-methyl pyrimidin-4-amine] | + (+ means >1 uM)
40 | Cc1cc(NC2CCC(F)(F)CC2)nc(-n2ccc(=O)[nH]2)n1 [IN11079-067-P1, 1-(4-((4,4-difluorocyclohexyl)amino)-6-methylpyrimidin-2-yl)-1H-pyrazol-3-ol] | + (+ means >1 uM)
41 | COc1cc(NC2CCSCC2)nc(-c2nc(C)cs2)n1 [IN11079-072-P1] | + (+ means >1 uM)
42 | Cc1ccn(-c2cc(CN3CCCOC3=O)cc(NC3CCC(F)(F)CC3)n2)n1 [IN11083-014-P1] | + (+ means >1 uM)
43 | Cc1csc(-c2cc(NC(=O)OC(C)(C)C)cc(NC3CCC(F)(F)CC3)n2)n1 [IN11083-048-P1, tert-butyl (2-((4,4-difluorocyclohexyl)amino)-6-(4-methylthiazol-2-yl)pyridin-4-yl) carbamate] | +++ (+++ means <200 nM)
44 | COc1c(NC2CCC(F)(F)CC2)nc(-c2nc(C)cs2)nc1C(C)O (stereo not drawn) [IN11104-039-P1, 1-(6-((4,4-difluorocyclohexyl)amino)-5-methoxy-2-(4-methylthiazol-2-yl)pyrimidin-4-yl)ethan-1-ol] | + (+ means >1 uM)
45 | COC(=O)NCCOc1nc(-c2nc(C)cs2)nc(NC2CCC(F)(F)CC2)c1OC [IN11104-041-P1] | ++ (++ means 200 nM-1000 nM)
46 | CC(=O)c1cc(NC2CCC(F)(F)CC2)cc(-c2nc(C)cs2)c1 [IN11104-059-P1, 1-(3-((4,4-difluorocyclohexyl)amino)-5-(4-methylthiazol-2-yl)phenyl) ethan-1-one] | + (+ means >1 uM)
47 | Cc1csc(-c2cc(NC3CCC(F)(F)CC3)cc(C(C)O)c2)n1 (stereo not drawn) [IN11104-077-P1, 1-(3-((4,4-difluorocyclohexyl)amino)-5-(4-methylthiazol-2-yl)phenyl) ethan-1-ol] | + (+ means >1 uM)
48 | COc1cc(NC2CCC3(CC2)COC3)nc(-c2nc(C)cs2)n1 [IN11104-084-P2] | + (+ means >1 uM)
